This test relates to Spodoptera littoralis. The experiment in a line: Insecticidal activity against Spodoptera littoralis larvae assessed per gram of fresh weight of diet administered through artificial diet measured after 6 days. Type of test: functional, organism-based.

On to `COc1cccc2c(-c3ccc4c(c3OCc3ccc(Cl)cc3)[C@@H](C)N[C@H](C)C4)c(C)cc(OC)c12`, for which the EC50 is 16.4 µg/g.

For the compound `COc1cccc2c(-c3ccc4c(c3OC(C)C)[C@@H](C)N[C@H](C)C4)c(C)cc(OC)c12` [8-O-ISOPROPYLDIONCOPHYLLINE A], the EC50 stood at 94.1 µg/g.

In turn, `COc1cccc2c(-c3ccc4c(c3O)[C@@H](C)N[C@H](C)C4)c(C)cc(OC)c12` [DIONCOPHYLLINE A] returned an EC50 of 277 µg/g.

Take `COc1cccc2c(-c3ccc4c(c3O)[C@@H](C)N(C(C)=O)[C@H](C)C4)c(C)cc(OC)c12` [N-ACETYLDIONCOPHYLLINE A]: the EC50 amounted to 291 µg/g.

Regarding `CCCCOc1c(-c2c(C)cc(OC)c3c(OC)cccc23)ccc2c1[C@@H](C)N(C=O)[C@H](C)C2` [8-O-N-BUTYL-N-FORMYLDIONCOPHYLLINE A], the EC50 came to 182 µg/g.

The compound `COc1cccc2c(-c3ccc4c(c3O)[C@@H](C)N(C=O)[C@H](C)C4)c(C)cc(OC)c12` [N-FORMYLDIONCOPHYLLINE A] returned an EC50 of 454 µg/g.

`COc1cccc2c(-c3ccc4c(c3OC(=O)c3ccccc3)[C@@H](C)N(C=O)[C@H](C)C4)c(C)cc(OC)c12` [8-O-BENZOYL-N-FORMYLDIONCOPHYLLINE A] came in with an EC50 of 132 µg/g.

`COc1cccc2c(-c3ccc4c(c3OCc3ccc(C(F)(F)F)cc3)[C@@H](C)N[C@H](C)C4)c(C)cc(OC)c12` registered an EC50 of 35.1 µg/g.

`COc1cccc2c(-c3ccc4c(c3OC(C)=O)[C@@H](C)N(C=O)[C@H](C)C4)c(C)cc(OC)c12` [8-O-ACETYL-N-FORMYLDIONCOPHYLLINE A] showed an EC50 of 361 µg/g.

`COc1cccc2c(-c3ccc4c(c3OC(C)=O)[C@@H](C)N(C(C)=O)[C@H](C)C4)c(C)cc(OC)c12` [N-ACETYL-8-O-ACETYLDIONCOPHYLLINE A] had an EC50 of 331 µg/g.

For the compound `COc1cccc2c(-c3ccc4c(c3OCc3ccccc3)[C@@H](C)N[C@H](C)C4)c(C)cc(OC)c12` [8-O-BENZYLDIONCOPHYLLINE A], the EC50 was 27.1 µg/g.

In turn, `COc1cccc2c(-c3ccc4c(c3OC(=O)C(C)(C)C)[C@@H](C)N(C=O)[C@H](C)C4)c(C)cc(OC)c12` [N-FORMYL-8-O-PIVALOYLDIONCOPHYLLINE A] registered an EC50 of 333 µg/g.

For `COc1c(-c2c(C)cc(OC)c3c(OC)cccc23)ccc2c1[C@@H](C)N(C=O)[C@H](C)C2`, the EC50 worked out at 171 µg/g.

The compound `COc1cccc2c(-c3ccc4c(c3OCc3ccc([N+](=O)[O-])cc3)[C@@H](C)N[C@H](C)C4)c(C)cc(OC)c12` registered an EC50 of 25.6 µg/g.

The compound `COc1cccc2c(-c3ccc4c(c3OC(C)C)[C@@H](C)N(C=O)[C@H](C)C4)c(C)cc(OC)c12` [N-FORMYL-8-O-ISOPROPYLDIONCOPHYLLINE A] showed an EC50 of 130 µg/g.

The compound `COc1cccc2c(-c3cc(Br)c4c(c3O)[C@@H](C)N[C@H](C)C4)c(C)cc(OC)c12` [5-BROMODIONCOPHYLLINE A] yielded an EC50 of 193 µg/g.

In turn, `COc1cccc2c(-c3ccc4c(c3O)[C@@H](C)N(C)[C@H](C)C4)c(C)cc(OC)c12` displayed an EC50 of 377 µg/g.

`CCCCCCCCCCCC(=O)Oc1c(-c2c(C)cc(OC)c3c(OC)cccc23)ccc2c1[C@@H](C)N(C=O)[C@H](C)C2`: the EC50 was greater than 750 µg/g.

On to `COc1cccc2c(-c3ccc4c(c3OCc3ccccc3)[C@@H](C)N(C=O)[C@H](C)C4)c(C)cc(OC)c12` [8-O-BENZYL-N-FORMYLDIONCOPHYLLINE A], for which the EC50 was found to be 67.1 µg/g.

In the case of `COc1cccc2c(-c3ccc4c(c3OCc3ccc(Br)cc3)[C@@H](C)N[C@H](C)C4)c(C)cc(OC)c12`, the EC50 was determined as 15.6 µg/g.

Values taken from ChEMBL document CHEMBL1146405, “Dioncophylline A as a growth-retarding agent against the herbivorous insect Spodoptera littoralis: structure-activity relationships” (J Nat Prod, 1997).
